Measurements as given in EP1290011B1 (Oncopeptides AB, priority 2000, dated 2001).

Key:
[1] = test system: primary cultures of human tumor cells from patients (PHTC), Total; assay: FMCA in PHTC cultures, Table 4, total; conditions: 4 µM; n=19-31; 4320 min
Ovarian carcinoma = assay: Cytotoxic activity in different tumour models; assay type: cell-based, human; conditions: Number 8
U1690 = assay: cells; assay type: cell-based; conditions: U1690, small cell lung cancer; read-out: IC50
[2] = test system: PHTC samples from 9 patients with hematological and 18 patients with solid tumours; assay: Circumvention of melphalan resistance: FMCA classification of PHTC samples as LDR, IDR, EDR; assay type: cell-based, human; conditions: tested at 4 µM; for Number of samples EDR / Number of samples (%) EDR: Extreme drug resistance; for Number of samples (%) EDR / Number of samples (%) IDR / Number of samples (%) LDR: percent of samples; for Number of samples IDR / Number of samples (%) IDR: Intermediate drug resistance; for Number of samples LDR / Number of samples (%) LDR: Low drug resistance
NSC Lung cancer = assay: Cytotoxic activity in different tumour models; assay type: cell-based, human; conditions: Number 8
U1285 = assay: cells; assay type: cell-based; conditions: U1285, small cell lung cancer; read-out: IC50
8226LR5 = assay: cells; assay type: cell-based, human; conditions: 8226LR5, melphalan resistance; 72 hours incubation; read-out: IC50
NCI-H157 = assay: cells; assay type: cell-based; conditions: NCI-H157, non-small cell lung cancer; read-out: IC50
[3] = test system: panel of ten human tumour cell lines; assay: cells; assay type: cell-based; conditions: mean over the ten cell lines; read-out: MEAN IC50
U-1810 = assay: cells; assay type: cell-based; conditions: U-1810, non-small cell lung cancer; read-out: IC50
CEM/R = assay: cells; assay type: cell-based, human; conditions: CEM/R; 72 hours incubation; read-out: IC50
Adeno-carcinoma = assay: Cytotoxic activity in different tumour models; assay type: cell-based, human; conditions: Number 5
U-1752 = assay: cells; assay type: cell-based; conditions: U-1752, non-small cell lung cancer; read-out: IC50
[4] = test system: solid tumour fresh human tumour specimens (PHTC); conditions: 0.66 µM; n=22; 4320 min
[5] = test system: fresh human tumour specimens; assay: FMCA cytotoxic activity in 27 fresh human tumour specimens (Figure 2); assay type: cell-based; conditions: 27 human tumour samples, 14 hematological and 13 solid, comparative statement
NCI-H125 = assay: cells; assay type: cell-based; conditions: NCI-H125, non-small cell lung cancer; read-out: IC50
H69 = assay: cells; assay type: cell-based, human; conditions: H69, small cell lung cancer; 72 hours incubation; read-out: IC50
U-1568 = assay: cells; assay type: cell-based; conditions: U-1568, non-small cell lung cancer; read-out: IC50
CEM/S = assay: cells; assay type: cell-based, human; conditions: CEM/S; 72 hours incubation; read-out: IC50
U-1906E = assay: cells; assay type: cell-based; conditions: U-1906E, small cell lung cancer; read-out: IC50
ACHN = assay: cells; assay type: cell-based, human; conditions: ACHN, primary resistant renal carcinoma; 72 hours incubation; read-out: IC50
NCI-H611 = assay: cells; assay type: cell-based; conditions: NCI-H611, non-small cell lung cancer; read-out: IC50
[6] = test system: hematological fresh human tumour specimens (PHTC); conditions: 0.66 µM; n=42; 4320 min
Solid tumours (PHTC) = assay: FMCA in PHTC cultures, Table 4, solid; conditions: 4 µM; n=12-20; 4320 min
NCI-H23 = assay: cells; assay type: cell-based; conditions: NCI-H23, non-small cell lung cancer; read-out: IC50
U937gtb = assay: cells; assay type: cell-based, human; conditions: U937gtb, lymphoma; 72 hours incubation; read-out: IC50
8226Dox40 = assay: cells; assay type: cell-based, human; conditions: 8226Dox40, doxorubicin resistance; 72 hours incubation; read-out: IC50
U937vcr = assay: cells; assay type: cell-based, human; conditions: U937vcr, vincristine resistance; 72 hours incubation; read-out: IC50
Corpus cancer = assay: Cytotoxic activity in different tumour models; assay type: cell-based, human; conditions: Number 4
Breast cancer = assay: Cytotoxic activity in different tumour models; assay type: cell-based, human; conditions: Number 4
[7] = test system: Hematological tumours (PHTC); assay: FMCA in PHTC cultures, Table 4, hematological; conditions: 4 µM; n=7-11; 4320 min
8226S = assay: cells; assay type: cell-based, human; conditions: 8226S, myeloma; 72 hours incubation; read-out: IC50
U1906L = assay: cells; assay type: cell-based; conditions: U1906L, small cell lung cancer; read-out: IC50
H69AR = assay: cells; assay type: cell-based, human; conditions: H69AR, doxorubicin resistance; 72 hours incubation; read-out: IC50
Prostate cancer = assay: Cytotoxic activity in different tumour models; assay type: cell-based, human; conditions: Number 1

CCOC(=O)[C@H](Cc1ccc(F)cc1)NC(=O)[C@@H](N)Cc1ccc(N(CCCl)CCCl)cc1.Cl [Example J1, L-Melphalanyl-L-p-fluorophenylalanine ethyl ester hydrochloride]
Tumour cell survival index (%) Total [1]: 40.9%
Median response at 4.0 µM >50% reduction in tumour cell survival (Ovarian carcinoma): Yes
IC50 (U1690): 1390 nM
Number of samples EDR [2]: 1
Number of samples (%) EDR [2]: 6%
Number of samples IDR [2]: 3
Number of samples (%) IDR [2]: 18%
Number of samples LDR [2]: 13
Number of samples (%) LDR [2]: 76%
Median response at 4.0 µM >50% reduction in tumour cell survival (NSC Lung cancer): Yes
IC50 (U1285): 40 nM
IC50 (8226LR5): 2470 nM
IC50 (NCI-H157): 3900 nM
IC50 [3]: 660 nM
IC50 (U-1810): 10 nM
IC50 (CEM/R): 10 nM
Median response at 4.0 µM >50% reduction in tumour cell survival (Adeno-carcinoma): Yes
IC50 (U-1752): 1300 nM
Tumour cell survival index % Solid [4]: 46.9%
IC50s (comparison) [5]: in all cases was more active than P2
IC50 (NCI-H125): 9730 nM
IC50 (H69): 40 nM
IC50 (U-1568): 1640 nM
IC50 (CEM/S): 30 nM
IC50 (U-1906E): 1170 nM
IC50 (ACHN): 400 nM
IC50 (NCI-H611): 3170 nM
Tumour cell survival index % Hematological [6]: 13.7%
Tumour cell survival index (%) Solid tumours (Solid tumours (PHTC)): 56.5%
IC50 (NCI-H23): 7600 nM
IC50 (U937gtb): 70 nM
IC50 (8226Dox40): 1760 nM
IC50 (U937vcr): 110 nM
Median response at 4.0 µM >50% reduction in tumour cell survival (Corpus cancer): No
Median response at 4.0 µM >50% reduction in tumour cell survival (Breast cancer): Yes
Tumour cell survival index (%) Hematological tumours [7]: 6.6%
IC50 (8226S): 810 nM
IC50 (U1906L): 220 nM
IC50 (H69AR): < 9000 nM

CC(C)OC(=O)[C@H](Cc1ccc(F)cc1)NC(=O)[C@@H](N)Cc1ccc(N(CCCl)CCCl)cc1.Cl [JV28, L-Melphalanyl-L-p-fluorophenylalanine isopropyl ester hydrochloride]
Median response at 4.0 µM >50% reduction in tumour cell survival (Prostate cancer): Yes
Tumour cell survival index (%) Total [1]: 30.4%
Median response at 4.0 µM >50% reduction in tumour cell survival (Ovarian carcinoma): Yes
Number of samples EDR [2]: 1
Number of samples (%) EDR [2]: 6%
Number of samples IDR [2]: 2
Number of samples (%) IDR [2]: 12%
Number of samples LDR [2]: 14
Number of samples (%) LDR [2]: 82%
Median response at 4.0 µM >50% reduction in tumour cell survival (NSC Lung cancer): Yes
IC50 (8226LR5): 1880 nM
IC50 [3]: 410 nM
IC50 (CEM/R): 40 nM
Median response at 4.0 µM >50% reduction in tumour cell survival (Adeno-carcinoma): Yes
IC50 (H69): 50 nM
IC50 (CEM/S): 60 nM
IC50 (ACHN): 50 nM
Tumour cell survival index (%) Solid tumours (Solid tumours (PHTC)): 44.2%
IC50 (U937gtb): 100 nM
IC50 (8226Dox40): 890 nM
IC50 (U937vcr): 150 nM
Median response at 4.0 µM >50% reduction in tumour cell survival (Breast cancer): Yes
Tumour cell survival index (%) Hematological tumours [7]: 6.7%
IC50 (8226S): 510 nM
IC50 (H69AR): 370 nM

CCOC(=O)[C@H](Cc1ccc(F)cc1)NC(=O)[C@H](Cc1ccc(N(CCCl)CCCl)cc1)NC(=O)[C@@H]1CCCN1.Cl [Example J3, L-Prolinyl-L-melphalanyl-L-p-fluorophenylalanine ethyl ester hydrochloride]
Median response at 4.0 µM >50% reduction in tumour cell survival (Prostate cancer): Yes
Tumour cell survival index (%) Total [1]: 25.9%
Median response at 4.0 µM >50% reduction in tumour cell survival (Ovarian carcinoma): Yes
Number of samples EDR [2]: 0 (0%)
Number of samples (%) EDR [2]: 0 (0%)
Number of samples IDR [2]: 4
Number of samples (%) IDR [2]: 15%
Number of samples LDR [2]: 23
Number of samples (%) LDR [2]: 85%
Median response at 4.0 µM >50% reduction in tumour cell survival (NSC Lung cancer): Yes
IC50 (8226LR5): 3520 nM
IC50 [3]: 1470 nM
IC50 (CEM/R): 20 nM
Median response at 4.0 µM >50% reduction in tumour cell survival (Adeno-carcinoma): Yes
IC50 (H69): 200 nM
IC50 (CEM/S): 60 nM
IC50 (ACHN): 1720 nM
Tumour cell survival index (%) Solid tumours (Solid tumours (PHTC)): 36.3%
IC50 (U937gtb): 230 nM
IC50 (8226Dox40): 5660 nM
IC50 (U937vcr): 420 nM
Median response at 4.0 µM >50% reduction in tumour cell survival (Corpus cancer): Yes
Median response at 4.0 µM >50% reduction in tumour cell survival (Breast cancer): Yes
Tumour cell survival index (%) Hematological tumours [7]: 7%
IC50 (8226S): 1510 nM
IC50 (H69AR): 1360 nM
